Assay results from patent US11198761B2, “Biodegradable polyionenes” (AGENCY FOR SCIENCE, TECHNOLOGY AND RESEARCH, priority 2017, dated 2021).

Experiments:
E. coli (ATCC No. 25922) = test: MIC, broth microdilution; assay type: cell-based, Escherichia coli; settings: Gemini-surfactant series S; 18 hours, 37° C.
Protocol: (§1) Bacterial and fungal samples were inoculated according to ATCC's requirement. Briefly, bacteria and fungi were grown in Mueller Hinton Broth (MHB) at 37° C. and room temperature, respectively overnight to allow the microbes to enter the log growth phase with constant 100 rpm shaking. Minimum inhibitory concentration (MIC) of the polymers was determined using the broth microdilution method. 100 μL of 20% v/v water-containing broth with various polymer or Gemini-surfactant concentrations was first added into each well of a 96-well tissue culture plate. The inoculated overnight microbe solution was first diluted to an optical density (O.D.) reading of 0.07 using a microplate reader (TECAN, Switzerland). This will correspond to 3×10^8 CFU/mL based on the McFarland 1 standard solution (CFU=colony forming units). The microbe solution was further diluted 1000 times to achieve a final 3×10^5 CFU/mL. To each well, an equal volume of diluted microbes solution was added and incubated at 37° C. for 18 hours for bacteria samples and at room temperature for 42 hours for fungi samples. There were 6 replicates for each concentration tested, with negative control being microbes added into broth containing 20% v/v deionized water. MIC was taken as the lowest concentration at which there was no observable microbe growth when measured by the microplate reader.

[1] = test system: S. aureus, E. coli, P. aeruginosa, C. albicans; test: Killing efficiency test (CFU on agar after MIC testing); assay type: cell-based; settings: at MIC and 2×MIC, all the microbes
Protocol: After MIC testing, all solutions from the control, ½MIC, MIC and 2MIC wells were collected and subjected to a series of ten-fold dilution. 20 μL of the diluted microbe solution was streaked onto pre-casted agar plates using LB+1.5% agar from the first Base. Agar plates with bacteria samples were incubated at 37° C. for 18 hours while those with fungi samples were incubated for 42 hours at room temperature before the CFUs were counted.

S. aureus biofilms [2] = test: XTT assay for cell viability of biofilms; assay type: cell-based, Staphylococcus aureus; settings: 18 hours treatment
Protocol: (§2) The bacteria stock was diluted in Mueller Hinton Broth (MHB) to get an optical density (OD) reading of 0.07 at 600 nm. 48 wells of a 96 flat-well plate were plated with 100 μL of bacteria suspension each. The plate was then incubated at 37° C. Every day over the next 7 days, MHB was carefully removed from the plate so as not to disturb the biofilm at the bottom of the well, and replaced with 100 μL of fresh MHB to each well.
(§3) After the biofilm was cultured, at the end of 7 days, MHB was removed from the wells. The biofilms were washed carefully with PBS 3 times to remove planktonic cells. The surfactant was weighed in a micro-centrifuge tube, and the weighed sample was diluted to 10,000 mg L^−1 using distilled water. Serial dilution was conducted to obtain surfactant solutions having concentrations of 100 mg L^−1, 70 mg L^−1, 50 mg L^−1, 35 mg L^−1, 25 mg L^−1, 20 mg L^−1, and 10 mg L^−1. The solvent was 20% distilled water and 80% MHB for each solution. The control was 20% distilled water and 80% MHB without surfactant. The surfactant solutions of different concentrations were added to the wells, 100 μL into each, with 6 replicates for each concentration. The plate was then incubated at 37° C. for 18 hours. […] At the end of the incubation period, the optical density (OD) reading of the plate was taken at 490 nm.

S. aureus biofilms [3] = test: Biofilm biomass assay (safranin O); assay type: cell-based, Staphylococcus aureus; settings: 18 hours treatment
Protocol: as §2
as §3, with “10000” for “10,000”, “of” for “having”, “concentrations” for “concentrations of”, “was” for “was then”, “550” for “490”

E. coli biofilms [4] = test: Biofilm biomass assay (safranin O); assay type: cell-based, Escherichia coli; settings: 18 hours treatment
Protocol: as §2
as §3, with “10000” for “10,000”, “of” for “having”, “concentrations” for “concentrations of”, “was” for “was then”, “550” for “490”

[5] = test system: P. aeruginosa (ATCC No. 9027); test: MIC, broth microdilution; assay type: cell-based, Pseudomonas aeruginosa; settings: Gemini-surfactant series S; 18 hours, 37° C.
Protocol: as §1

[6] = test system: S. aureus, E. coli, P. aeruginosa, C. albicans; test: Killing kinetics, several strains together; assay type: cell-based
Protocol: 600 μL of 3×10^5 CFU/mL microbial suspension was added to each concentration of the polymer. […] 20 μL of the diluted microbial suspension was then plated onto agar plates and incubated for 24 hours and 42 hours at 37° C. and room temperature for bacteria and fungi respectively, then manually counted for CFU.

[7] = test system: C. albicans (ATCC No 10231); test: MIC, broth microdilution; assay type: cell-based, Candida albicans; settings: Gemini-surfactant series S; 42 hours, room temperature
Protocol: as §1

E. coli biofilms [8] = test: XTT assay for cell viability of biofilms; assay type: cell-based, Escherichia coli; settings: 18 hours treatment
Protocol: as §2, §3

[9] = test system: S. aureus (ATCC No. 6538); test: MIC, broth microdilution; assay type: cell-based, Staphylococcus aureus; settings: Gemini-surfactant series S; 18 hours, 37° C.
Protocol: as §1

[10] = test system: rat red blood cells (rRBCs); test: Hemolysis assay; assay type: cell-based; settings: Gemini-surfactant series S; 1 hour, 37° C.
Protocol: Freshly obtained rat red blood cells (rRBC) from the Animal Handling Unit of Biomedical Research Center (Singapore) was used to test the hemolytic activity of the polymers and Gemini-surfactants. The rRBC was diluted to 4% v/v with phosphate-buffered saline (PBS) and added to an equal volume of 0.2% v/v Triton-X solution. A microplate reader was used to measure the optical density (O.D.) reading to make sure the value is between 0.5 and 0.6. An equal volume of different polymer or Gemini-surfactant concentrations was added to the diluted blood and incubated for 1 hour at 37° C. The samples were centrifuged at 1000 g at 4° C. for 5 minutes and 100 μL of the supernatant was collected and transferred to a 96-well tissue culture plate. There were 4 replicates for each concentration. Haemoglobin release was measured using the microplate reader at 576 nm. rRBCs treated with PBS were used as the […] control, while those treated with 0.2% v/v Triton-X was used as the […] control.
Percentage of hemolysis was calculated as follows: Hemolysis (%)═[(O.D.576 nm of the treated sample−O.D.576 nm of negative control)/(O.D.576 nm of positive control−O.D.576 nm of negative control)]×100%
HC50 was taken as the polymer concentration at which the polymer causes 50% hemolysis.

K. pneumoniae 8637 [11] = test: Survival of K. pneumoniae 8637-infected mice; assay type: in vivo; settings: 2.0 mg/kg intraperitoneally once daily for 3 days, five days, n=10
Protocol: ICR mice (female, 7 weeks old, […]) were used for the in vivo studies. Immunosuppression was induced by intraperitoneal injection of 200 mg/Kg cyclophosphamide (Hengrui Corp, Jiangsu Province, P. R. China) 4 days prior to infection. Mice were anesthetized by intra-peritoneal injection of 1% pentobarbital (40 mg/kg, Sigma).
To investigate the in vivo antibacterial efficacy of P-1a-1 (6037B), a pneumonia mouse model was established. The immunosuppression of mice was induced as described above. Overnight cultures of K. pneumoniae 8637 were harvested and suspended in PBS. Before instillation with K. pneumoniae 8637, the mice were anesthetized using an intraperitoneal injection with 1% pentobarbital (40 mg/kg). […] It was determined from the survival rate of mice at 5 days post-infection by the BLISS method.
To further determine the in vivo therapeutic efficacy of P-1a-1 (6037B), survival of the K. pneumoniae 8637-infected mice was monitored with and without treatment. […] After being anesthetized, each of the immunosuppressed mice was inoculated intranasally with 0.03 mL of bacterial suspension at the minimum lethal dose determined above. […] The mice were monitored for a period of five days, and the number of surviving mice in each group was recorded. […]

K. pneumoniae 8637 [12] = test: Efficacy (ED50/ED95) in K. pneumoniae 8637-induced pneumonia; assay type: in vivo; settings: immunosuppressed mice, intraperitoneally once daily for 3 days, survival over 5 days, BLISS method
Protocol: ICR mice (female, 7 weeks old, 24-26 mg) were used for the in vivo studies. Immunosuppression was induced by intraperitoneal injection of 200 mg/Kg cyclophosphamide (Hengrui Corp, Jiangsu Province, P. R. China) 4 days prior to infection. Mice were anesthetized by intra-peritoneal injection of 1% pentobarbital (40 mg/kg, Sigma).
The immunosuppression of mice was induced as described above. Overnight cultures of K. pneumoniae 8637 were harvested and suspended in PBS. Before instillation with K. pneumoniae 8637, the mice were anesthetized using an intraperitoneal injection with 1% pentobarbital (40 mg/kg). Each of the immunosuppressed mice was infected intranasally with 0.03 mL of the bacterial suspension at designated doses (i.e. 1×10^9, 1.5×10^9, 2.3×10^9, 3.5×10^9, 5.3×10^9, 8.0×10^9 CFU/ml, four mice per group). The minimum lethal dose was defined as the lowest dose, which was sufficient to cause 100% mortality. It was determined from the survival rate of mice at 5 days post-infection by the BLISS method.
The number of surviving mice in each group was recorded for 5 days to assess ED50 by the BLISS method.

Question: `CCCCCCCCCC[N+](C)(C)Cc1ccc(C(=O)NCCCCCCNC(=O)c2ccc(C[N+](C)(C)CCCCCCCCCC)cc2)cc1.[Cl-].[Cl-]` [S-3g] was tested. Which “MIC EC” value (E. coli (ATCC No. 25922)) did it give?
Answer: 1 ppm

Question: What about the “reduction in the colony forming units (CFU)” value [1] of the same molecule?
Answer: ≥ 99.9%

Question: And the biofilm cell viability (S. aureus biofilms [2])?
Answer: reduced in a dose dependent manner

Question: What about the biomass of biofilm (S. aureus biofilms [3]) of the same molecule?
Answer: reduced in a dose dependent manner

Question: What about the biomass of biofilm (E. coli biofilms [4]) of the same molecule?
Answer: reduced in a dose dependent manner

Question: And the “MIC PA” value [5]?
Answer: 8 ppm

Question: And the “killing of all four strains of microbes” value ([6]; 16 and 32×MIC, 2 minutes)?
Answer: completely killed

Question: What about the “concentration needed to completely eradicate the microbes” value ([6]; 30 seconds) of the same molecule?
Answer: 64 ×MIC

Question: And the “MIC CA” value [7]?
Answer: 2 ppm

Question: What about the biofilm cell viability (E. coli biofilms [8]) of the same molecule?
Answer: reduced in a dose dependent manner

Question: And the “MIC SA” value [9]?
Answer: 1 ppm

Question: And the “Hemolysis, HC50” value [10]?
Answer: 125-250 ppm

Question: Which “MIC EC” value (E. coli (ATCC No. 25922)) does the source give for `CCCCCCCCCC[N+](C)(C)Cc1ccc(C(=O)OCCCCCCCCCCCCOC(=O)c2ccc(C[N+](C)(C)CCCCCCCCCC)cc2)cc1.[Cl-].[Cl-]` [S-10g] here?
Answer: 500 ppm

Question: What about the “MIC PA” value [5] of the same molecule?
Answer: 500 ppm

Question: What about the “MIC CA” value [7] of the same molecule?
Answer: 16 ppm

Question: And the “MIC SA” value [9]?
Answer: 16 ppm

Question: What about the “Hemolysis, HC50” value [10] of the same molecule?
Answer: 63-125 ppm

Question: Which results are given for `CCCCCCCCCC[N+](C)(C)Cc1ccc(C(=O)OCc2ccc(COC(=O)c3ccc(C[N+](C)(C)CCCCCCCCCC)cc3)cc2)cc1.[Cl-].[Cl-]` [S-12g]?
Answer: MIC EC (E. coli (ATCC No. 25922)): 2 ppm; MIC PA [5]: 8 ppm; MIC CA [7]: 2 ppm; MIC SA [9]: 1 ppm; Hemolysis, HC50 [10]: 125-250 ppm

Question: Which results are given for `CCCCCCCCCC[N+](C)(C)Cc1ccc(C(=O)NCCCCCCOC(=O)c2ccc(C[N+](C)(C)CCCCCCCCCC)cc2)cc1.[Cl-].[Cl-]` [S-13g]?
Answer: MIC EC (E. coli (ATCC No. 25922)): 1 ppm; MIC PA [5]: 4 ppm; MIC CA [7]: 1 ppm; MIC SA [9]: 1 ppm; Hemolysis, HC50 [10]: 63-125 ppm

Question: What does the source list for `C[C@@H](O)[C@H]1C(=O)N2C(C(=O)O)=C(SCCN=CN)C[C@H]12` [imipenem]?
Answer: survival (K. pneumoniae 8637 [11]): 60%; ED50 (K. pneumoniae 8637 [12]; Klebsiella pneumoniae, 8637, ip): 2.75 mg/kg; ED95 (K. pneumoniae 8637 [12]): 20.0 mg/kg
